From patent US4931443A, “Piperazine compound and pharmaceutical use thereof” (Yoshitomi Pharmaceutical Industries, Ltd., priority 1986, dated 1990)

Assays:
[1] = target: T1, serotonin-1 receptor (Rattus norvegicus, UniProt P19327); experiment: Affinity for serotonin-1 receptor: 3H-8-OH-DPAT binding assay; details: rat hippocampus synaptosomal membranes; 3H-8-OH-DPAT 0.2 nM; pH 7.4, 37° C., 10 min
T1 sequence (P19327 1-422): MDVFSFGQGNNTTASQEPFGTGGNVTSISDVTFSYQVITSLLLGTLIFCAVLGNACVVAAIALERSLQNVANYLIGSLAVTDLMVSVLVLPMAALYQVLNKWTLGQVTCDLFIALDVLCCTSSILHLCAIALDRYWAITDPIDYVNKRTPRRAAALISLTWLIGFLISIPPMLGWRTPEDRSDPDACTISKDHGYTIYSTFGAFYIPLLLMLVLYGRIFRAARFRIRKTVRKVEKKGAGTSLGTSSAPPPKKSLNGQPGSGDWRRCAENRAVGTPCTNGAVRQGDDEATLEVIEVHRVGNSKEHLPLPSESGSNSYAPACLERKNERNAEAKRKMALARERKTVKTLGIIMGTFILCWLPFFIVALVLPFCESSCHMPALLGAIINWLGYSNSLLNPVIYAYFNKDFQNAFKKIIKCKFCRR
Experimental: (§1) Experiment 3 Affinity for serotonin receptor
(1) Affinity for serotonin-1 receptor: ^3 H-8-hydroxy-2-(dipropylamino)tetralin(^3 H-8-OH-DPAT) binding assay
Preparation of synaptosomal membranes and ^3 H-8-OH-DPAT binding assay were performed according to the method of Hall et al(Journal of Neurochemistry, vol. 44, p. 1685, 1985).
Rat hyppocampus which was maintained in a freezed state was homogenized in 40-fold volumes of ice-cold 50 mM Tris-HCl buffer (pH 7.4) and centrifugated at 500 g for 10 minutes at 0° C. Further, the supernatant was centrifugated at 40,000 g for 20 minutes at 0° C. and the pellets thus obtained were homogenized in 40-fold volumes of the same buffer as mentioned above, and then incubated at 37° C. for 10 minutes. After incubation, the suspension was centrifugated at 40,000 g for 20 minutes at 0° C. The obtained pellets were washed by repeating twice the procedures of homogenization in the above-mentioned buffer and centrifugation. The suspension of synaptosomal membranes was prepared by homogenizing the pellets finally obtained in 60-fold volumes of 50 mM Tris-HCl buffer (pH 7.4) containing 1 mM manganese chloride.
To 900 μl of the membrane suspension were added 50 μl of ^3 H-8-OH-DPAT solution (final concentration: 0.2 nM), and 50 μl of the test compound solution or the solvent and the mixture was incubated at 37° C. for 10 minutes. After incubation, 5 ml of ice-cold 50 mM Tris-HCl buffer (pH 7.4) was added, and immediately thereafter, the mixture was filtered with suction through Whatman GF/B filter. The filter was washed twice with 5 ml of the same buffer as mentioned above and the radioactivity on the filter was measured by a liquid scintillation counter.

[2] = tested on: serotonin-induced head-twitch; experiment: Experiment 2 Anti-serotonin action (head-twitch method in mice); assay type: in vivo, male dd-strain mice; details: Mus musculus, po; serotonin 40 μg/0.02 ml i.c.v. 1 h after compound; head-twitch counted 5 min; probit method
Experimental: Experiment 2 Anti-serotonin action (head-twitch method in mice)
Groups of 8-30 male dd-strain mice were used. The test compounds were orally administered and an hour later, 40 μg/0.02 ml of serotonin was intracerebroventricularly administered. Ten minutes thereafter, the numbers of head-twitch were measured for 5 minutes. The ED50 values calculated by the probit method considering the number of head-twitch induced by the administration of serotonin with less than once as the inhibitory action by the test compound.

[3] = target: T2, serotonin-2 receptor (Rattus norvegicus, UniProt P14842); experiment: Affinity for serotonin-2 receptor: 3H-spiperone binding assay; details: rat cerebral cortex synaptosomal membranes; 3H-spiperone 0.5 nM; 37° C., 20 min
T2 construct: from tissue; host or cells: rat cerebral cortex, synaptosomal membranes
T2 sequence (P14842 whole entry): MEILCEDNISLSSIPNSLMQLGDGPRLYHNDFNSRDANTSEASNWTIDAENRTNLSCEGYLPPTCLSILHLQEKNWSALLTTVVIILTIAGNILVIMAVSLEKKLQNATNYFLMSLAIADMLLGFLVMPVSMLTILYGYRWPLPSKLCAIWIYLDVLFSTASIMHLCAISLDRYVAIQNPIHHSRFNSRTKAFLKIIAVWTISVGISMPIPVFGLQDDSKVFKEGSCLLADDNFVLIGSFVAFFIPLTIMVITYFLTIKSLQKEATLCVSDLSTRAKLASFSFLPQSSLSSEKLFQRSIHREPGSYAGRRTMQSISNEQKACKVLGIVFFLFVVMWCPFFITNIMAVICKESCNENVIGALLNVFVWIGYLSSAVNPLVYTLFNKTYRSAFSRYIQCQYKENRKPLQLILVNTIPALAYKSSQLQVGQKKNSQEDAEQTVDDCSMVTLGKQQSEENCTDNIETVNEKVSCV
Experimental: as §1
(2) Affinity for serotonin-2 receptor: ^3 H-spiperone bindig assay
The preparation of synaptosomal membranes and binding assay were performed according to the method of Peroutka and Snyder (Molecular Pharmacology, vol. 16, p. 687, 1979).
Rat cerebral cortex which was maintained in a freezed state was homogenized in 20-fold volumes of ice-cold 0.32 M sucrose and centrifugated at 1,000 g for 10 minutes at 0° C. The supernatant was centrifugated at 50,000 g for 15 minutes at 0° C. The obtained pellets were homogenized in 20-fold volumes of ice-cold 50 mM Tris-HCl buffer (pH 7.5). The mixture was incubated at 37° C. for 10 minutes, and further centrifugated at 50,000 g for 15 minutes at 0° C. The suspension of synaptosomal membrane was prepared by homogenizing the obtained pellets in 60-fold volumes of the buffer mentioned above containing 1.1 mM ascorbic acid, 4 mM calcium chloride and 10 μM pargyline.
To 900 μl of the suspension of synaptosomal membrane were added 50 μl of ^3 H-spiperone (final concentration : 0.5 nM) and 50 μl of the test compound solution or the solvent, and then incubated at 37° C. for 20 minutes. After the completion of incubation, 5 ml of ice-cold buffer as mentioned above was added. Immediately thereafter, the mixture was filtered with suction through Whatman GF/B filter. The filter was washed twice with 5 ml of the same buffer as mentioned above and the radioactivity on the filter was measured by a liquid scintillation counter.

[4] = tested on: apomorphine-induced motility; experiment: Experiment 1 Anti-apomorphine action (motility, Varimex); assay type: in vivo, male dd-strain mice; details: Mus musculus, po; apomorphine 0.5 mg/kg s.c. 1 h after compound; motility 20 min; dose lowering motility of control by 50%
Experimental: Experiment 1 Anti-apomorphine action
Groups of 3 male dd-strain mice (4 groups/dose) were used. Test compounds were orally administered and an hour later, 0.5 mg/kg of apomorphine was subcutaneously administered. Immediately thereafter, motility was measured with the aid of Varimex (manufactured by Columbus Co.) for 20 minutes. The ED50 values, the dose of test compound required to lower the motility of the control group by 50%, were graphically calculated.

[5] = Experiment 4 Cataleptogenic action; assay type: in vivo, female Wistar-strain rats; details: rat, in vivo, po; orally; peak time of catalepsy within 9 hours; probit method
Experimental: (§2) Then, the cataleptogenic action of the compound of Example 15 was studied for the purpose of measuring the degree of the extrapyramidal side effect. […]
(§3) Experiment 4 Cataleptogenic action
(§4) Groups of 10 female Wistar-strain rats were used. Catalepsy was measured by the partly modified method of Simon et al (Journal of Pharmacy and Pharmacology, vol. 22, P. 546, 1970). The front paws of the rats were placed gently on a vertical grid (4 mm diameter, 9 cm height).
(§5) After the compound of Example 15 was orally administered, catalepsy was measured with the passage of time in 9 hours.

[6] = tested on: catalepsy; experiment: Experiment 4 Cataleptogenic action; assay type: in vivo, female Wistar-strain rats; details: rats, index of extrapyramidal side effects
Experimental: as §2, §3, §4, §5

| Structure (SMILES) | Ki [1] [nM] | ED50 [2] [mg/kg] | Ki [3] [nM] | ED50 [4] [mg/kg] | ED50 [5] [mg/kg] | cataleptogenic action (in words) [6] |
| --- | --- | --- | --- | --- | --- | --- |
| Cc1cccc(N2CCN(CCCCc3ccc(C4CCC(=O)N4)cc3)CC2)c1 (centres unmarked) [Example 1, 5-[4-(4-(4-(3-methylphenyl)piperazin-1-yl)butyl)phenyl]pyrrolidin-2-one] | 0.61 | 0.53 | 23 | 13 |  |  |
| Cl.O=C1CCC(c2ccc(CCN3CCN(c4cccc(C(F)(F)F)c4)CC3)cc2)N1 (centres unmarked) [Example 2, 5-[4-(2-(4-(3-trifluoromethylphenyl)piperazin-1-yl)ethyl)phenyl]pyrrolidin-2-one hydrochloride] | 0.31 | 0.15 | 78 | 15 |  |  |
| O=C1CCC(c2ccc(CCCCN3CCN(c4ccc(F)cc4)CC3)cc2)N1 (centres unmarked) [Example 6, 5-[4-(4-(4-(4-fluorophenyl)piperazin-1-yl)butyl)phenyl]pyrrolidin-2-one] | 4.7 | 2.2 | 66 | 4.2 |  |  |
| COc1ccccc1N1CCN(CCCCc2ccc(C3CCC(=O)N3)cc2)CC1 (centres unmarked) [Example 7, 5-[4-(4-(4-(2-methoxyphenyl)piperazin-1-yl)butyl)phenyl]pyrrolidin-2-one] | 0.28 | 3.5 | 480 | 2.1 |  |  |
| O=C1CCC(c2ccc(CCCN3CCN(c4ccccc4)CC3)cc2)N1 (centres unmarked) [Example 9, 5-[4-(3-(4-phenylpiperazin-1-yl)propyl)phenyl]pyrrolidin-2-one] | 4.5 | 2.4 | 250 | 9.5 |  |  |
| Cl.Cl.O=C1CCC(c2ccc(CCCCN3CCN(c4cccc(C(F)(F)F)c4)CC3)cc2)N1 (centres unmarked) [Example 15, 5-[4-(4-(4-(3-trifluoromethylphenyl)piperazin-1-yl)butyl)phenyl]pyrrolidin-2-one dihydrochloride] | 0.4 | 0.32 | 63 | 4.2 | 250 | very weak cataleptic action |
